Test results taken from the SangsterLogP compilation.

conditions: not given

| SMILES | logP |
| --- | --- |
| CCCN(CCC)C(=O)SCc1ccccc1 | 4.65 |
| CCCCCC(C)OC(=O)COc1ccc(Cl)c2cccnc12 (configuration not stated) | 5.03 |
| CC1=C(C)S(=O)(=O)CCS1(=O)=O | -0.17 |
| O=C(Nc1ccccc1)Nc1ccnc(Cl)c1 | 3.2 |
| Cc1ccc2nc3sc(=O)sc3nc2c1 | 3.78 |
| CCN(Cc1c(F)cccc1Cl)c1c([N+](=O)[O-])cc(C(F)(F)F)cc1[N+](=O)[O-] | 5.45 |
| FC(F)C(F)(F)OCC(Cn1cncn1)c1ccc(Cl)cc1Cl (configuration not stated) | 3.53 |
| CC1(C)OC(c2ccco2)CN1C(=O)C(Cl)Cl (configuration not stated) | 2.12 |
| CCOC(=O)Cn1c(=O)sc2cccc(Cl)c21 | 2.5 |
| COC(=O)c1c(C(F)F)nc(C(F)(F)F)c(C2=NCCS2)c1CC(C)C | 3.89 |
| [O-][n+]1nc(-n2ccnc2)nc2ccc(Cl)cc21 | 2.04 |
| CC1(C)[C@H](C(=O)O[C@H](C#N)c2cccc(Oc3ccccc3)c2)[C@@H]1/C=C\C(=O)OC(C(F)(F)F)C(F)(F)F | 5.26 |
| CCCN(CCC)c1c([N+](=O)[O-])cc(C(F)(F)F)c(N)c1[N+](=O)[O-] | 4.1 |
| C#CCOC(=O)[C@@H](C)Oc1ccc(Oc2ncc(Cl)cc2F)cc1 | 3.9 |
| CCCCCCCCn1sccc1=O | 2.45 |
| CC(C)(C)C(O)/C(=C\c1ccc(Cl)cc1)n1cncn1 (configuration not stated) | 3.67 |
| CCOP(=S)(OCC)OC(Cl)C(Cl)(Cl)Cl (configuration not stated) | 4.59 |
| COc1ccsc1CN(C(=O)CCl)c1c(C)cccc1C | 3.53 |
| C#CCC1=C(C)C(OC(=O)C2C(C=C(C)C)C2(C)C)CC1=O (configuration not stated) | 4.49 |
| C/C(=N\C#N)N(C)Cc1ccc(Cl)nc1 | 0.8 |
| CNC(=O)CSP(=O)(OC)OC | -0.75 |
| Clc1ccc(C2(Cn3cncn3)CC(Br)CO2)c(Cl)c1 (configuration not stated) | 3.24 |
| COCC(=O)N(c1c(C)cccc1C)N1CCOC1=O | 0.73 |
| CCS(=O)(=O)Oc1ccc2c(c1)C(C)(C)CO2 | 2.41 |
| O=C(NC(=O)c1c(F)cccc1F)Nc1cc(Cl)c(OC(F)(F)C(F)C(F)(F)F)cc1Cl (configuration not stated) | 5.12 |
| CC(Oc1ccc(Oc2cnc3cc(Cl)ccc3n2)cc1)C(=O)OCC1CCCO1 (configuration not stated) | 4.32 |

same assay, conditions: pH 2.0

| logD | SMILES |
| --- | --- |
| 1.63 | COc1cc(OC)nc(NC(=O)NS(=O)(=O)N(C)S(C)(=O)=O)n1 |

same assay, conditions: pH 5.0

| SMILES | logD |
| --- | --- |
| Cc1cc(C2CC2)nc(Nc2ccccc2)n1 | 3.9 |
| CCS(=O)(=O)c1cccnc1S(=O)(=O)NC(=O)Nc1nc(OC)cc(OC)n1 | 0.29 |

same assay, conditions: pH 5.6

| SMILES | logD |
| --- | --- |
| O=c1c2cc(F)ccc2nc(-n2cncn2)n1-c1ccc(Cl)cc1Cl | 3.24 |

same assay, conditions: pH 6.1

| SMILES | logD |
| --- | --- |
| Cc1cc(C)nc(Nc2ccccc2)n1 | 2.84 |

same assay, conditions: pH 6.5

| SMILES | logD |
| --- | --- |
| CNC(=O)ON=C(C)C(C)S(C)(=O)=O (configuration not stated) | 1.11 |
| COc1ccc(C(O)(c2cncnc2)C2CC2)cc1 (configuration not stated) | 1.91 |

same assay, conditions: pH 7.0

| SMILES | logD |
| --- | --- |
| CC(C)C(O)(c1ccc(OC(F)(F)F)cc1)c1cncnc1 (configuration not stated) | 3.34 |
| CCOC(=O)CSc1nc(C(C)(C)C)nn1C(=O)N(C)C | 2.69 |
| COc1cc(OC)n2nc(S(=O)(=O)Nc3c(Cl)ccc(C)c3Cl)nc2n1 | 2.46 |
| CC(C1CC1)C(O)(Cn1cncn1)c1ccc(Cl)cc1 (configuration not stated) | 2.91 |
| CN1CSC(=S)N(C)C1 | 1.4 |
| CCOC(=O)CCN(SN(C)C(=O)Oc1cccc2c1OC(C)(C)C2)C(C)C | 4.3 |

same assay, conditions: pH 7.3

| SMILES | logD |
| --- | --- |
| O=C(Nc1ccccc1)Nc1cnns1 | 1.77 |

conditions: not given; remark: another data set of the same source

| SMILES | logP |
| --- | --- |
| CN(C)C(=O)Nc1ccc(-n2nc(C(C)(C)C)oc2=O)c(Cl)c1 | 2.51 |
| CC1(C)C(C=C(Cl)Cl)C1C(=O)OC(C#N)c1ccc(F)c(Oc2ccccc2)c1 (configuration not stated) | 5.93 |
| CCOC(=O)C(Cl)Cc1cc(-n2nc(C)n(C(F)F)c2=O)c(F)cc1Cl (configuration not stated) | 3.36 |
| COP(=O)(OC)OC1=C(Cl)C2C=CCC12 (configuration not stated) | 2.32 |
| O=S(=O)(c1ccc(Cl)cc1)c1cc(Cl)c(Cl)cc1Cl | 4.61 |
| COC(C)(C)CCCC(C)C/C=C/C(C)=C/C(=O)OC(C)C (configuration not stated) | 5.21 |
| CCOC1Oc2ccc(OS(C)(=O)=O)cc2C1(C)C (configuration not stated) | 2.7 |
| CCNP(=S)(OC)O/C(C)=C/C(=O)OC(C)C (configuration not stated) | 3.82 |
| CCCCOC(=O)N(C)SN(C)C(=O)Oc1cccc2c1OC(C)(C)C2 | 4.6 |
| O=c1oc2ccccc2c(O)c1C1CC(c2ccc(OCc3ccc(C(F)(F)F)cc3)cc2)Cc2ccccc21 (configuration not stated) | 4.7 |
| COC(=O)C(C)N(C(=O)c1ccco1)c1c(C)cccc1C (racemic) | 2.7 |
| C=CCNC(=O)CN(CC=C)C(=O)C(Cl)Cl | 1 |
| CCCCOC(=O)[C@@H](C)Oc1ccc(Oc2ccc(C(F)(F)F)cn2)cc1 | 4.5 |
| CCOP(=S)(OCC)Oc1nc(Cl)n(C(C)C)n1 | 2.99 |
| CCSC(C)CC1CC(=O)C(/C(CC)=N/OC/C=C/Cl)=C(O)C1 (configuration not stated) | 4.19 |
| O=C1C(Cl)=C(Cl)C(=O)N1c1ccc(F)cc1 | 2.3 |
| CCOCCOC(=O)C(C)Oc1ccc(Oc2ncc(C(F)(F)F)cc2Cl)cc1 (configuration not stated) | 4.33 |
| CC(C)NC(=O)N1CC(=O)N(c2cc(Cl)cc(Cl)c2)C1=O | 3 |
| CCNc1nc(Cl)nc(NCC)n1 | 2.1 |
| CCOC(=O)c1cn2nc(OP(=S)(OCC)OCC)cc2nc1C | 3.8 |
| CC(C)=CC1C(C(=O)OCN2C(=O)C3=C(CCCC3)C2=O)C1(C)C (configuration not stated) | 4.49 |

| SMILES | logP |
| --- | --- |
| O=CNC(N1CCN(C(NC=O)C(Cl)(Cl)Cl)CC1)C(Cl)(Cl)Cl (configuration not stated) | 2.2 |
| C/C=C/C(=O)Oc1c(C(C)CCCCCC)cc([N+](=O)[O-])cc1[N+](=O)[O-] (configuration not stated) | 4.54 |
| CC(C)C1CCC(Cc2ccc(Cl)cc2)C1(O)Cn1cncn1 (configuration not stated) | 4.21 |
| CC1(C)[C@H](C(=O)O[C@H](C#N)c2cccc(Oc3ccccc3)c2)[C@@H]1C(Br)C(Br)(Br)Br (some centres not stated) | 5 |
| O=C1C2CC=CCC2C(=O)N1SC(Cl)(Cl)Cl (configuration not stated) | 2.78 |
| CN(C)C(=O)Nc1cc(C(C)(C)C)on1 | 1.98 |
| CCOCN(C(=O)CCl)c1c(C)cccc1CC | 3.03 |
| CCCSP(=O)(OCC)Oc1ccc(Br)cc1Cl (configuration not stated) | 4.44 |
| CC(C)N(Cc1ccccc1)C(=O)C(C)(C)C | 3 |
| COc1ccc(/C(=C\C(=O)N2CCOCC2)c2ccc(Cl)cc2)cc1OC | 2.73 |
| CCOC(=O)[C@@H](C)Oc1ccc(Oc2nc3ccc(Cl)cc3o2)cc1 | 4.58 |
| CC1(C)CCC(Cc2ccc(Cl)cc2)C1(O)Cn1cncn1 (configuration not stated) | 3.93 |
| CC(C)OC(=O)C(C(=O)OC(C)C)=C1SCCS1 | 3.3 |
| CC(C)N1C(=O)N(c2ccccc2)CS/C1=N\C(C)(C)C | 4.3 |
| CC(C)=CC1C(C(=O)OCc2coc(Cc3ccccc3)c2)C1(C)C (configuration not stated) | 5.4 |
| C/C=C\COCN(C(=O)CCl)c1c(CC)cccc1CC | 3.51 |
| CC(C)c1cc(Oc2ccccc2)cc(C(C)C)c1NC(=S)NC(C)(C)C | 5.76 |
| CC1(C)CC/C(=C\c2ccc(Cl)cc2)C1(O)Cn1cncn1 (configuration not stated) | 3.29 |
| CCN(CC)C(=O)C(C)Oc1cccc2ccccc12 (configuration not stated) | 3.3 |
| CCCCC(CC)N1C(=O)C2C3C=CC(C3)C2C1=O (configuration not stated) | 3.8 |
| COCCN(C(=O)CCl)c1c(C)cccc1C | 2.2 |

| SMILES | logP |
| --- | --- |
| CCCCC(CC)CN1C(=O)C2C3C=CC(C3)C2C1=O (configuration not stated) | 3.7 |
| Cc1cnc(C2=NC(C)(C(C)C)C(=O)N2)c(C(=O)O)c1 (configuration not stated) | 0.39 |
| Cl/C=C\CCl | 2.06 |
| CN(C)C(=O)Nc1ccc(Cl)c(Cl)c1 | 2.85 |
| CCOP(=S)(OCC)Oc1ccc(=O)n(-c2ccccc2)n1 | 3.2 |
| CCOc1ccc(C2(C(=O)OC(C#N)c3cccc(Oc4ccccc4)c3)CC2(Cl)Cl)cc1 (configuration not stated) | 4.19 |
| CCC(=O)Nc1ccc(Cl)c(Cl)c1 | 3.3 |
| CC1=NNC(=O)N(/N=C/c2cccnc2)C1 | -0.18 |
| CCCOC(=O)c1ccc(C(=O)OCCC)nc1 | 3.57 |
| COP(=S)(OC)Oc1ccc(C#N)cc1 | 2.65 |
| CCOc1nc(C(Cl)(Cl)Cl)ns1 | 3.37 |
| CC1COc2ccccc2N1C(=O)C(Cl)Cl (configuration not stated) | 2.7 |
| CC(C)OC(=O)C(O)(c1ccc(Br)cc1)c1ccc(Br)cc1 | 5.4 |
| COP(=S)(OC)Oc1ccc(Sc2ccc(OP(=S)(OC)OC)cc2)cc1 | 4.91 |
| C[C@@H](Oc1ccc(Oc2ccc(C#N)cc2F)cc1)C(=O)O | 3.31 |
| COCC(C)N(C(=O)CCl)c1c(C)csc1C (configuration not stated) | 2.15 |
| CCOC(=O)C1(C)OC(=O)N(c2cc(Cl)cc(Cl)c2)C1=O (configuration not stated) | 3.3 |
| Clc1ccccc1-c1nnc(-c2ccccc2Cl)nn1 | 3.1 |
| NC(=O)c1nc(-c2ccccc2)n(-c2ccc(Cl)c(COCC(F)(F)C(F)(F)F)c2)n1 | 3.27 |
| Nc1cnn(-c2ccccc2)c(=O)c1Cl | 1.19 |
| CCOP(=O)(SC(C)CC)SC(C)CC (configuration not stated) | 3.9 |

| SMILES | logP |
| --- | --- |
| CNC(=O)ON=C(C)C(C)SC (configuration not stated) | 1.11 |
| COC(=O)c1c(Cl)c(Cl)c(C(=O)OC)c(Cl)c1Cl | 4.28 |
| O=C(Nc1ccc(Cl)cc1C(O)c1ccccc1)c1ccncc1 (configuration not stated) | 3.13 |
| OC1(c2ccc(Cl)cc2)CCCCCC1n1cncn1 (configuration not stated) | 3.02 |
| C=CCCCOC(=O)C(CC)N(Cc1ccco1)C(=O)n1ccnc1 (configuration not stated) | 3 |
| CC1(C)CON(Cc2ccccc2Cl)C1=O | 2.5 |
| CON(C)C(=O)Nc1ccc(Br)cc1 | 2.41 |
| CCSCc1ccccc1OC(=O)NC | 2.04 |
| CCC1OCC(COc2ccc(Oc3ccccc3)cc2)O1 (configuration not stated) | 4.3 |
| CCCCCOC(=O)COc1cc(N2C(=O)C3=C(CCCC3)C2=O)c(F)cc1Cl | 4.99 |
| O=C(NC(=O)c1ccccc1Cl)Nc1ccc(OC(F)(F)F)cc1 | 4.91 |
| CC(Oc1ccc(Oc2ncc(Cl)cc2Cl)cc1)C(=O)N1CCCO1 (configuration not stated) | 3.36 |
| CCSCCSP(=S)(OC)OC | 3.46 |
| C=CCN(CC=C)C(=O)C(Cl)Cl | 1.84 |
| O=[N+]([O-])c1ccc(NS(=O)(=O)c2ccc(Cl)c(C(F)(F)F)c2)c(Cl)c1 | 2.4 |
| CCSCCSP(=O)(OC)OC | 1.32 |
| CCN(CC)C(=O)SCc1ccccc1Cl | 3.43 |
| O=C1c2ccccc2C(=O)N1SC(Cl)(Cl)Cl | 3.11 |
| C#CCOS(=O)OC1CCCCC1Oc1ccc(C(C)(C)C)cc1 (configuration not stated) | 3.73 |
